# Data from patent publication US6624182B1, “Hydroxyphenylvinylthiazoles” (Ciba Specialty Chemicals Corporation, priority 1999, dated 2003).
# Legend:
# Assay in all cases: Determination of the minimum inhibitory concentration (MIC value) in microtitre plates
# P. aeruginosa = format: cell-based, Pseudomonas aeruginosa CIP A-22; settings: optical density at 620 nm, 48 hours at 37° C., MIC = ≦20% growth; tested at 100; 10 and 1 ppm (approximate values); (2), (3), (4) at 120; 60; 30; 15; 7.5; 3.75 ppm
# How it was run: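 P. aeruginosa CIP A-22 at 1−5×10^6 KBE/ml, diluted 1:100 in CASO bouillon, exposed to 1:2 serial dilutions of DMSO-dissolved compound for 48 h at 37 °C, in duplicate. Growth read by OD 620 nm; MIC is the lowest concentration giving ≤20% growth relative to growth control.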
# C. albicans = format: cell-based, Candida albicans ATCC 10231; settings: optical density at 620 nm, 48 hours at 37° C., MIC = ≦20% growth; tested at 100; 10 and 1 ppm (approximate values); (2), (3), (4) at 120; 60; 30; 15; 7.5; 3.75 ppm
# How it was run: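 Candida albicans ATCC 10231 grown overnight in CASO broth, adjusted to 1–5×10^6 CFU/ml then diluted 1:100, was exposed to 1:2 serial dilutions of compound (DMSO) for 48 h at 37 °C. Growth was read as OD620; MIC was the concentration giving ≤20% growth versus control, tested in duplicate.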
# E. coli = format: cell-based, Escherichia coli NCTC 8196; settings: optical density at 620 nm, 48 hours at 37° C., MIC = ≦20% growth; tested at 100; 10 and 1 ppm (approximate values); (2), (3), (4) at 120; 60; 30; 15; 7.5; 3.75 ppm
# How it was run: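 E. coli NCTC 8196 grown overnight in CASO bouillon, adjusted to 1−5×10^6 KBE/ml, diluted 1:100 and added to DMSO-dissolved compounds in 1:2 dilution series. Incubated 48 h at 37° C; growth read as OD 620 nm. MIC is the lowest concentration giving ≤20% growth versus growth control; duplicates.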
# A. niger = format: cell-based, Aspergillus niger ATCC 6275; settings: optical density at 620 nm, 5 days at 28° C., MIC = ≦20% growth; tested at 100; 10 and 1 ppm (approximate values); (2), (3), (4) at 120; 60; 30; 15; 7.5; 3.75 ppm
# How it was run: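 A. niger ATCC 6275 spores, adjusted to 1−5×10^6 KBE/ml and diluted 1:100 in Sabouraud 2% glucose bouillon, were exposed to 2-fold dilutions of DMSO-dissolved compounds for 5 days at 28°C. Growth read as OD at 620 nm. MIC is the lowest concentration giving ≤20% growth versus growth control, tested in duplicate.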
# S. aureus = format: cell-based; settings: optical density at 620 nm, 48 hours at 37° C., MIC = ≦20% growth; tested at 100; 10 and 1 ppm (approximate values); (2), (3), (4) at 120; 60; 30; 15; 7.5; 3.75 ppm
# How it was run: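 DMSO-dissolved compounds were tested in 1:2 serial dilutions against bacteria in CASO bouillon, from inocula of 1−5×10^6 KBE/ml diluted 1:100. Growth was read by OD 620 nm after 48 h at 37 °C. MIC was the lowest concentration giving ≦20% growth versus the growth control, tested in duplicate.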
MIC values in ppm P. aeruginosa (P. aeruginosa),MIC values in ppm C. albicans (C. albicans),MIC values in ppm E. coli (E. coli),MIC values in ppm A. niger (A. niger),MIC values in ppm S. aureus (S. aureus),SMILES
>100 ppm,>100 ppm,>100 ppm,>100 ppm,>100 ppm,CCOc1cc(/C=C/c2nc(-c3ccc(N4CCCC4)cc3)cs2)ccc1O [Compound of formula (30)]
>100 ppm,>100 ppm,>100 ppm,>100 ppm,>100 ppm,COc1cc(/C=C/c2nc(-c3ccc(F)cc3)cs2)ccc1O [Compound of formula (8)]
>100 ppm,>100 ppm,>100 ppm,>100 ppm,>100 ppm,COc1ccc(/C=C/c2nc(-c3ccc(F)cc3)cs2)c(O)c1 [Compound of formula (9)]
>100 ppm,>100 ppm,>100 ppm,>100 ppm,>100 ppm,Oc1cccc(/C=C/c2nc(-c3ccccc3)cs2)c1 [Compound of formula (51)]
>100 ppm,>100 ppm,>100 ppm,>100 ppm,>100 ppm,Cc1cc(/C=C/c2nc(-c3ccc(N4CCCC4)cc3)cs2)cc(C)c1O [Compound of formula (35)]
>100 ppm,>100 ppm,>100 ppm,>100 ppm,>100 ppm,COc1ccc(/C=C/c2nc(-c3ccc(F)cc3)cs2)cc1O [Compound of formula (6)]
>100 ppm,>100 ppm,>100 ppm,>100 ppm,>100 ppm,COc1cc(/C=C/c2nc(-c3ccc(N4CCCC4)cc3)cs2)cc(O)c1OC [Compound of formula (34)]
>100 ppm,>100 ppm,>100 ppm,>100 ppm,>100 ppm,CCc1csc(/C=C/c2ccc(OC)c(O)c2)n1 [Compound of formula (41)]
>100 ppm,>100 ppm,>100 ppm,>100 ppm,>100 ppm,CCc1csc(/C=C/c2ccc(O)cc2OC)n1 [Compound of formula (50)]
>100 ppm,>100 ppm,>100 ppm,>100 ppm,>100 ppm,CCOc1cc(/C=C/c2nc(-c3ccc(F)cc3)cs2)ccc1O [Compound of formula (7)]
>100 ppm,>100 ppm,>100 ppm,>100 ppm,>100 ppm,COc1ccc(/C=C/c2nc(-c3ccc(N4CCCC4)cc3)cs2)cc1O [Compound of formula (29)]
>100 ppm,>100 ppm,>100 ppm,>100 ppm,>100 ppm,COc1cc(/C=C/c2nc(-c3ccc(F)cc3)cs2)cc(O)c1OC [Compound of formula (11)]
